Read-outs that look alike come from different tables or passages of the source.
Test system: patients with IPSS Low to Intermediate-1 Risk Myelodysplastic Syndrome
Conditions: for patients achieving significant RBC transfusion reduction: no prior DMTI, five of 11 patients
Protocol: Eighty-seven patients were randomized and treated at 23 investigational sites. After initial dose ranging in 14 patients, two dose levels were selected for further study. Subsequently, 37 patients were treated at 3 grams daily for two weeks followed by a one week rest period, and 36 patients were treated at 2 grams daily for three weeks followed by a one week rest period. The data on these 73 patients was pooled for this preliminary analysis.

In the case of `CCOC(=O)[C@@H](N)CCC(=O)N[C@@H](CSCc1ccccc1)C(=O)N[C@@H](C(=O)OCC)c1ccccc1` [Telintra, ethyl (2S)-2-amino-5-[[(2R)-3-benzylsulfanyl-1-[[(1R)-2-ethoxy-2-oxo-1-phenylethyl]amino]-1-oxopropan-2-yl]amino]-5-oxopentanoate], the “increase in response rate, lenalidomide pre-treated vs not pre-treated patients” value (46% vs 22% response rate) is reported as “over 100%”, the cytogenetic complete responses (all study patients) is reported as “three cytogenetic complete responses” and the “HI-E Response Rate (95% Confidence Interval)” value (efficacy evaluable patients with prior Revlimid (lenalidomide) treatment: Yes, N=13, listed as ezatiostat hydrochloride) is reported as “about 46%”. For the same compound, the “complete cytogenetic response in del 5q minus patients” value (four patients enrolled with del 5q minus, one responder had failed prior Revlimid) was “two had a complete cytogenetic response”, the “change in odds for a HI-E response with prior DMTI treatment” value (logistic regression analysis, p=0.023) was “five-fold decrease” and the “patients achieving significant RBC transfusion reduction” value (no prior Revlimid) was 45%. The “duration of complete remission following discontinuation of therapy” value (one patient (Quddus et al.)) was “more than 12 months” and the “patients achieving significant RBC transfusion reduction” value (prior Revlimid) was 45%.

Source: US8759303B2, “Compositions and methods for treating myelodysplastic syndrome” (Telik, Inc., priority 2010, dated 2014)
